According to patent US6060505A (priority 1999, dated 2000):
Read-outs that look alike come from different tables or passages of the source.

How the values were obtained:
[1] = tested on: B16/F10 melanoma cell line; experiment: [3H]thymidine incorporation assay in melanoma cells (one day treatment); assay type: cell-based; conditions: for IC50: read-out: ED50, inhibition of [3H]thymidine incorporation
Source text: FIG. 2A depicts the percentage of incorporation of [^3 H]thymidine relative to a control sample (y-axis) plotted as a function of the concentration (nM) of bryostatin 1 (squares) or 26-epibryostatin 1 (circles)
(§1) The unmodified and C-26 modified bryostatins were used in [^3 H]thymidine incorporation and cell proliferation assays. The phorbol ester PMA, a ligand for protein kinase C was also used in this example to provide a separate control sample. The selection of PMA as a control sample is particularly appealing since bryostatins antagonize a subset of the actions of PMA. [^3 H]Thymidine incorporation is a measure of DNA synthesis, which is often used as a marker of cell replication. Chronic cell growth assays are an alternative measure of cell growth, usually performed over longer periods of time.
(§2) For [^3 H]-thymidine incorporation assays, melanoma cells growing in log phase at a density of 40-50% confluency were treated for one day with the indicated compound.

[2] = tested on: B16-F10 melanoma cell line; experiment: chronic cell growth (cell proliferation) assay, 4 days; assay type: cell-based; conditions: for IC50: read-out: ED50, dose required to reduce cell growth by 50%, 5760 min
Source text: FIG. 2B depicts the results of a chronic cell growth assay wherein the number of cells expressed as a percentage of a control sample (y-axis) are plotted as a function of the concentration (nM) of bryostatin 1 (squares), 26-epibryostatin 1 (circles), or PMA (triangles).
as §1
For the cell proliferation assays, the B16-F10 melanoma cell line with high pulmonary metastatic potency (from the laboratory of Dr. I. J. Fidler, Frederick Cancer Research and Development Center, Frederick, Md.) were plated at a density of 10^3 cells/well in Costar 12-well tissue culture plates. The cells were then treated with different concentrations of bryostatin 1, 26-epi-bryostatin 1, or PMA in 0.1% DMSO 1 and 3 days after plating. Total cell number was determined 4 days after plating.

[3] = tested on: B16/F10 melanoma cell line; experiment: cells; assay type: cell-based; conditions: for cytostatic / cytotoxic effect: 3 uM
Protocol: The effect of bryostatin 1 and phorbol 12-myristate 13-acetate (PMA) on the proliferation of the B16/F10 melanoma cell line was first determined. Bryostatin 1 inhibited [^3 H]thymidine incorporation with an ED50 of 600±80 nM (n=3) and with a maximum inhibition of 60% (FIG. 2A). […] The effect on cell growth of chronic treatment with bryostatin 1 or PMA was also determined. […] In contrast to bryostatin 1, PMA increased the cell growth by 75±10% (n=3) at a dose of 10 nM; the dose response curve was biphasic, with smaller effects at higher and lower applied doses (FIG. 2B).
During the 4-day treatment schedule, the number of cells in the control group increased 80 to 100-fold.

C57BL/6 mice = experiment: in vivo toxicity in C57BL/6 mice, 7 days observation
Protocol: C57BL/6 mice were injected with either 500 ug/kg or 1500 ug/kg 26-epi-bryostatin 1 or 150 ug/kg or 500 ug/kg bryostatin 1.

[4] = tested on: [3H]thymidine incorporation; experiment: [3H]thymidine incorporation with or without bisindolyl-maleimide I; assay type: cell-based; conditions: for [3H]thymidine incorporation expressed as percent of control: bryostatin 1 or epi-bryostatin 1 3 uM
Protocol: as §2
(§3) Bisindolyl-maleimide I was used to inhibit both PMA and bryostatin 1 induced protein kinase C activity and bryostatin 1 induced inhibition of [^3 H]thymidine incorporation.
The effect of bisindolyl-maleimide I cotreatment on induction of protein kinase C activity and [^3 H]thymidine incorporation in response to PMA or bryostatin 1.

protein kinase C [5] = conditions: cited from earlier work
protein kinase C [6] = assay type: cell-based; conditions: for fold increase of protein kinase C activity: PMA 10 nM, bryostatin 1 3 uM, 10 min
Protocol: as §3
Protein kinase C activity was assayed in cell lysates by measuring the incorporation of ^32 P from [γ-^32 P]ATP into acetylated myelin basic protein peptide (4-14) (Ac-MBP(4-14)) by methods known in the art (Nakadate et al., Biochem. Pharmacol., 37, 1541-1545 (1988)). The cells were treated at 60-75% confluency with bryostatin 1, 26-epi-bryostatin 1 and/or bisindolyl-maleimide I for 10 min. The cells were lysed by sonication in 20 mM Tris-HCl, pH 7.4, containing 5 mM EGTA and 20 uM leupeptin. 5 ul of cell lysate was added to 15 ul kinase buffer (20 mM HEPES, pH 7.5, 10 mM MgCl2, 0.5 mM CaCl2, 1 mM 4-(2-aminoethyl)benzenesulfonyl fluoride, 20 uM leupeptin, and 10 ug/ml aprotinin) containing 50 uM substrate, and 2 uCi [γ-^32 P]ATP at a concentration 50 uM ATP. The kinase reaction was incubated for 10 minutes at 30 ° C. The incorporated radioactivity was measured with a Pharmacia Biotech 1218 liquid scintillation counter.

protein kinase C [7] = conditions: cited from earlier work; remark: listed apart in the source
mice = conditions: cited from earlier work
humans = conditions: three infusions of 2 μg/kg; cited from earlier work
[8] = tested on: lymphoma, renal cancer, melanoma, leukemia, and ovarian cancer; conditions: cited from earlier work
[9] = with BIM-I (1 uM), PMA 10 nM, 1440 min
[10] = without BIM-I, PMA 10 nM, 1440 min

CCCC=CC=CC(=O)OC1C(=CC(=O)OC)CC2CC(C(C)O)OC(=O)CC(O)CC3CC(OC(C)=O)C(C)(C)C(O)(CC4CC(=CC(=O)OC)CC(C=CC(C)(C)C1(O)O2)O4)O3 (stereo not drawn) [26-epi-bryostatin 1]
maximum inhibition of [3H]thymidine incorporation ([1]; B16/F10 melanoma, highest dose tested 3 uM): 80±5%
inhibitory potency relative to bryostatin 1, [3H]thymidine incorporation ([1]; compared with bryostatin 1): inhibitory potency similar to that of bryostatin 1
maximum extent of inhibition relative to bryostatin 1, [3H]thymidine incorporation ([1]; compared with bryostatin 1): greater than for bryostatin 1
IC50 ([1]; B16/F10 melanoma, one day, 1440 min): 600 ± 120 nM
growth arrest ([2]; 3 uM, 4 days): almost complete growth arrest
inhibition of cell growth (maximal, highest dose tested) ([2]; 4 days, 3 uM): 97±3%
maximum extent of inhibition relative to bryostatin 1, cell growth ([2]; compared with bryostatin 1): greater than for bryostatin 1
reduction in potency relative to bryostatin 1, chronic cell growth assay ([2]; compared with bryostatin 1): 3 fold
IC50 ([2]; chronic treatment, 4 days): 140 ± 30 nM
cytostatic / cytotoxic effect [3]: powerful cytostatic agent with no cytotoxic effect
cell death (trypan blue exclusion) ([3]; after treatment in the cell growth assay, 5760 min, 3 µM): less than 1%
toxicity (C57BL/6 mice; 500 ug/kg injected): only relatively minor toxic effects
toxicity (C57BL/6 mice; 1500 ug/kg injected): only relatively minor toxic effects
therapeutic index relative to bryostatin 1 (C57BL/6 mice; compared with bryostatin 1): higher therapeutic index
toxicity relative to bryostatin 1 (C57BL/6 mice; compared with bryostatin 1): significantly less toxic than bryostatin 1
[3H]thymidine incorporation expressed as percent of control [4, 9]: 20 ± 5% of control
[3H]thymidine incorporation expressed as percent of control [4, 10]: 21 ± 3% of control
affinity for protein kinase C of 26-epi-bryostatin 1 (protein kinase C [5]; compared with bryostatin 1): significantly reduced affinity

CN(C)CCCn1cc(C2=C(c3c[nH]c4ccccc34)C(=O)NC2=O)c2ccccc21 [BIM-I, bisindolyl-maleimide I]
inhibition of PMA or bryostatin 1 induced protein kinase C enzymatic activity (protein kinase C [6]; BIM-I 1 uM, PMA 10 nM or bryostatin 1 3 uM): completely inhibited
effect on PMA-induced increase in [3H]thymidine incorporation ([4]; BIM-I 1 uM, PMA 10 nM): inhibited the modest PMA-induced increase
effect on bryostatin induced decrease in thymidine incorporation ([4]; BIM-I 1 uM, bryostatin 1 3 uM): slightly enhanced
effect on inhibition of thymidine incorporation by bryostatin 1 ([4]; BIM-I 1 uM, bryostatin 1 3 uM): did not block
[3H]thymidine incorporation expressed as percent of control ([4]; with BIM-I (1 uM), PMA 10 nM): 91 ± 2% of control
protein kinase C inhibition (protein kinase C [7]): powerful and specific protein kinase C inhibitor

CCC/C=C/C=C/C(=O)O[C@H]1/C(=C/C(=O)OC)C[C@H]2C[C@H]([C@@H](C)OC(C)=O)OC(=O)C[C@H](O)C[C@@H]3C[C@H](OC(C)=O)C(C)(C)[C@](O)(C[C@@H]4C/C(=C/C(=O)OC)C[C@H](/C=C/C(C)(C)[C@]1(O)O2)O4)O3 [C-26 acetate ester of bryostatin]
binding activity / affinity for protein kinase C (protein kinase C [5]): decreased binding activity

CCCC(=O)O[C@H]1/C(=C/C(=O)OC)C[C@H]2C[C@H]([C@H](C)O)OC(=O)C[C@H](O)C[C@@H]3C[C@H](OC(=O)C(C)(C)C)C(C)(C)[C@](O)(C[C@@H]4C/C(=C/C(=O)OC)C[C@H](/C=C/C(C)(C)[C@]1(O)O2)O4)O3 [C-26 epimer of bryostatin 4]
binding activity / affinity for protein kinase C (protein kinase C [5]): decreased binding activity

CCCCCCCCCCCCCC(=O)O[C@@H]1[C@@H](C)[C@@]2(O)[C@@H](C=C(CO)C[C@]3(O)C(=O)C(C)=C[C@@H]23)[C@@H]2C(C)(C)[C@]12OC(C)=O [PMA, phorbol 12-myristate 13-acetate]
activity at 0.01 µM ([1]; Mus musculus, B16-F10, 24 h, 10 nM, read-out: [3H]thymidine incorporation (slight increase)): 120 ± 20%
effect on [3H]thymidine incorporation ([1]; dose range between 0.1 nM to 3 uM): no significant effect
activation at 0.01 µM ([2]; Mus musculus, B16-F10, 96 h, 10 nM, chronic treatment, read-out: increase in cell growth): 75 ± 10%
dose response curve of cell growth ([2]; smaller effects at higher and lower applied doses than 10 nM): biphasic
fold increase of protein kinase C activity (protein kinase C [6]; with BIM-I (1 uM)): 1.08 ± 0.1 fold
fold increase of protein kinase C activity (protein kinase C [6]; without BIM-I): 4.4 ± 0.1 fold
[3H]thymidine incorporation expressed as percent of control ([4]; with BIM-I (1 uM), PMA 10 nM): 98 ± 11% of control
[3H]thymidine incorporation expressed as percent of control ([4]; without BIM-I, PMA 10 nM): 120 ± 22% of control

CCCC=CC=CC(=O)OC1C(=CC(=O)OC)CC2CC(C(C)O)OC(=O)CC(O)CC3CC(OC(C)=O)C(C)(C)C(O)(CC4CC(=CC(=O)OC)CC(C=CC(C)(C)C1(O)O2)O4)O3 (centres unmarked) [bryostatin 1]
inhibition at 3 µM ([1]; Mus musculus, B16-F10, 3 h, read-out: maximum inhibition of [3H]thymidine incorporation, B16/F10 melanoma, highest dose tested 3 uM): 60%
IC50 ([1]; Mus musculus, B16-F10, 24 h): 600 ± 80 nM
inhibition of cell growth (maximal, highest dose tested) ([2]; 4 days, 3 uM): 75±5%
IC50 ([2]; chronic treatment, 4 days): 50 ± 15 nM
cytostatic / cytotoxic effect [3]: arrested growth rather than killed cells
cytotoxicity at 3 µM ([3]; Mus musculus, B16-F10, 96 h, after treatment in the cell growth assay, read-out: cell death (trypan blue exclusion)): < 1%
toxicity (C57BL/6 mice; 150 ug/kg injected): only relatively minor toxic effects
toxicity, lethality (C57BL/6 mice; 500 ug/kg bryostatin 1 injected): lethal for all animals tested by the third day after injection
fold increase of protein kinase C activity (protein kinase C [6]; with BIM-I (1 uM)): 1.07 ± 0.04 fold
fold increase of protein kinase C activity (protein kinase C [6]; without BIM-I): 3.02 ± 0.3 fold
inhibition of [3H]thymidine incorporation of bryostatin 1 plus bisindolyl-maleimide I relative to 26-epi-bryostatin 1 alone ([4]; combination with BIM-I): same level of inhibition
[3H]thymidine incorporation expressed as percent of control [4, 9]: 25 ± 5% of control
[3H]thymidine incorporation expressed as percent of control [4, 10]: 43 ± 2% of control
lethal dose (mice): greater than 200 μg/kg
side-effects (humans): significant side-effects including myalgia and hypotension
antineoplastic effectiveness [8]: directly shown to be effective
